The source of these data is patent publication US7943606B2, “Compositions and methods to control abnormal cell growth” (CanCure Laboratories, LLC, priority 2005, dated 2011).

Data set [1] in a line: Body weight of animals in the MXT tumor model. Type of data set: in vivo, mouse. As to conditions: for Body weight, Day 7: start of treatment. Here is the method: The mouse mammary MXT tumor was developed as described above. […] CCDTHT and CisPt were administered subcutaneously and intraperitoneally, respectively, once daily for 10 days, including a 2-day rest period after 5 days of treatment (i.e., the last treatment was on day 19). Each group consisted of 7 animals, and the mean values±std. dev. for tumor volumes and body weight are shown in TABLE 4 and TABLE 5, respectively.
The mouse mammary MXT tumor model was developed and treated as described above. […] CisPt and PALP were administered intraperitoneally and subcutaneously, respectively, seven times on every second day (i.e., treatments were terminated on day 21). Each group included 7 animals; the mean values±std. dev. for tumor volumes and body weight are shown in TABLE 6 and TABLE 7, respectively.
The mouse mammary MXT tumor model was developed and treated as described above. […] In each group 7 mice were included. The mean values±std. dev. for tumor volumes and body weights are shown in TABLE 9 and TABLE 10, respectively.

For data set [2], the system named is MXT tumor. In words: MXT mouse mammary tumor model: tumor volume and survival. It is filed as in vivo. As to conditions: for Tumor volume, Day 7: start of treatment. From the text:
Tumors were developed in first generation hybrid BDF1 (C57 B1 female×DBA/2 male) adult female mice kept at specified pathogen free (SPF) hygienic level. Suspensions of HL-60 human leukemia cells, or approximately 0.1 cm^3 volume of tumor tissue derived from HT-168 human melanoma, PC-3 human prostate adenocarcinoma, T47D human breast carcinoma, MXT mouse mammary cancer, or mouse B16 melanoma cells were implanted subcutaneously to develop the tumors. After 12-18 days when the tumor-bearing mice were first treated, the size of the tumors was in the 0.2-0.4 cm^3 range. All compounds used were dissolved in physiological (0.9%) saline (NaCl), and the agents, alone or in combinations, were applied subcutaneously or intraperitoneally in 50 μl volume. Tumor volume was determined by calipers in three dimensions; this technique is well known to one having ordinary skill in the art. Tumor volume was calculated according to the generally accepted formula: V=a^2×b×π/6, where “a” and “b” mean the shortest and longest diameter, respectively, of the measured tumor.
The mouse mammary MXT tumor was developed as described above. On day 7 after transplantation of tumor cells, the animals were either remained untreated (group 1) or were treated with 2 mg/kg of CisPt alone (Group 2), or 4 mg/kg of CisPt alone (Group 3), or 4.6 mg/kg of CCDTHT alone (Group 4), or 2 mg/kg of CisPt+4.6 mg/kg of CCDTHT (Group 5), or 4 mg/kg of CisPt+4.6 mg/kg of CCDTHT (Group 6). CCDTHT and CisPt were administered subcutaneously and intraperitoneally, respectively, once daily for 10 days, including a 2-day rest period after 5 days of treatment (i.e., the last treatment was on day 19). Each group consisted of 7 animals, and the mean values±std. dev. for tumor volumes and body weight are shown in TABLE 4 and TABLE 5, respectively. While in this tumor model CCDTHT alone reduced the tumor volume less effectively than in the human tumor models, it clearly added to the tumor volume-reducing effect of CisPt (TABLE 4). A dramatic reduction in tumor volume was particularly evident in Group 6 (4 mg/kg CisPt+4.6 mg/kg CCDTHT).
The mouse mammary MXT tumor model was developed and treated as described above. On day 7 the animals were either remained untreated (Group 1) or were treated with 3 mg/kg of CisPt (Group 2) or 3 mg/kg of CisPt+15 mg/kg of highly purified PALP (Group 3). CisPt and PALP were administered intraperitoneally and subcutaneously, respectively, seven times on every second day (i.e., treatments were terminated on day 21). Each group included 7 animals; the mean values±std. dev. for tumor volumes and body weight are shown in TABLE 6 and TABLE 7, respectively.
The mouse mammary MXT tumor model was developed and treated as described above. On day 7 the animals either remained untreated (Group 1) or were treated with 3 mg/kg CisPt (Group 2), 3 mg/kg CisPt+4.6 mg/kg of CCDTHT (Group 3), or 3 mg/kg CisPt+4.6 mg/kg of CCDTHT+15 mg/kg highly purified PALP (Group 4). CisPt was administered intraperitoneally 9-times once every second day; CCDTHT was administered for 15 days once daily; and PALP was administered 3 times every 3rd day. In each group 7 mice were included. The mean values±std. dev. for tumor volumes and body weights are shown in TABLE 9 and TABLE 10, respectively.

The subject of data set [3] is cancer cells. Briefly: Induction of cancer cell death by quaternary nitrogen dyes compared with CCDTHT. Type of data set: cell-based. From the text:
Despite these observations, for the purpose of embodiments of the invention, the thioxanthene or thioxanthone moiety may be replaced with any other heterocyclic moiety to which it is feasible to attach at least one quaternary nitrogen group with three substituents that together are capable of inhibiting the transport of external choline into cells and thereby inhibit cell proliferation.

[4] abbreviates: Example 31, CisPt 2 mg/kg i.p. and/or CCDTHT 4.6 mg/kg s.c., once daily.
Setting [5] is: Example 31, CisPt 2 mg/kg i.p. and/or CCDTHT 4.6 mg/kg s.c.
Setting [6] is: Example 31, CisPt 4 mg/kg i.p. without or with CCDTHT 4.6 mg/kg s.c., once daily.
[7] abbreviates: Example 31, CisPt 4 mg/kg i.p. without or with CCDTHT 4.6 mg/kg s.c.
[8] abbreviates: Example 32, CisPt 3 mg/kg i.p. without or with PALP 15 mg/kg s.c., every second day.
Setting [9] is: Example 32, CisPt 3 mg/kg i.p. without or with PALP 15 mg/kg s.c.
[10] abbreviates: Example 34, CisPt 3 mg/kg i.p. every second day, CCDTHT 4.6 mg/kg once daily, PALP 15 mg/kg every 3rd day.
Setting [11] is: Example 34, CisPt 3 mg/kg i.p., CCDTHT 4.6 mg/kg, PALP 15 mg/kg.

With `N.N.[Cl][Pt][Cl]` [CisPt, Cisplatin], the “Body weight, Day 14” value in data set [1] (setting [4]) was found to be 22.9 ± 0.87 g; in data set [1] (setting [6]), 19.4 ± 1.05 g. For the same molecule, the “Body weight, Day 18” value in data set [1] (setting [4]) is reported as 22.3 ± 1.02 g; in data set [1] (setting [6]), “all dead”. Also, the “Body weight, Day 21” value in data set [1] (setting [4]) is listed as 21.2 ± 1.31 g; in data set [1] (setting [6]) it was “all dead”; in data set [1] (setting [8]), 19.2 ± 0.66 g; in data set [1] (setting [10]) it was 20.6 ± 1.80 g. Also, the “Body weight, Day 7” value in data set [1] (setting [5]) is recorded as 22.4 ± 0.73 g; in data set [1] (setting [7]) it was 22.5 ± 0.92 g; in data set [1] (setting [9]) it was 22.7 ± 0.37 g; in data set [1] (setting [11]), 22.2 ± 1.10 g. The “Body weight, Day 11” value in data set [1] (setting [8]) is 23.1 ± 0.52 g; in data set [1] (setting [10]), 23.10 ± 1.40 g. Further, the “Body weight, Day 16” value in data set [1] (setting [8]) is 20.9 ± 0.65 g. Moreover, the “Body weight, Day 15” value in data set [1] (setting [10]) worked out at 22.9 ± 1.00 g. For the same molecule, the survival in data set [2] (Example 31, CisPt 2 mg/kg and/or CCDTHT 4.6 mg/kg (groups 2, 4, 5)) was found to be 32.7 ± 6.2 days; in data set [2] (Example 31, CisPt 4 mg/kg without or with CCDTHT 4.6 mg/kg (groups 3, 6)), 18.1 ± 0.7 days; in data set [2] (Example 32, CisPt 3 mg/kg without or with PALP 15 mg/kg) it was 31.1 ± 6.2 days. Further, the “Tumor volume, Day 14” value is 3.34 ± 1.04 cm^3 in data set [2] (setting [4]) and 1.77 ± 0.40 cm^3 in data set [2] (setting [6]). Besides, the figures for the “Tumor volume, Day 18” value in data set [2] (setting [4]) and in data set [2] (setting [6]) were 5.37 ± 0.68 cm^3 and “all dead”, respectively. The “Tumor volume, Day 21” value is recorded as 6.23 ± 0.86 cm^3 in data set [2] (setting [4]), “all dead” in data set [2] (setting [6]), 5.86 ± 1.38 cm^3 in data set [2] (setting [8]) and 6.64 ± 1.28 cm^3 in data set [2] (setting [10]). Further, the “Tumor volume, Day 7” value was 0.46 ± 0.08 cm^3 in data set [2] (setting [5]), 0.45 ± 0.10 cm^3 in data set [2] (setting [7]), 0.38 ± 0.01 cm^3 in data set [2] (setting [9]) and 0.36 ± 0.12 cm^3 in data set [2] (setting [11]). For the same molecule, the entries for the “Tumor volume, Day 11” value in data set [2] (setting [8]) and in data set [2] (setting [10]) were 1.45 ± 0.22 cm^3 and 1.92 ± 0.67 cm^3, respectively. Also, the “Tumor volume, Day 16” value in data set [2] (setting [8]) turned out to be 4.53 ± 1.00 cm^3. The survival time in data set [2] (Example 34, CisPt 3 mg/kg alone or with CCDTHT 4.6 mg/kg + PALP 15 mg/kg) was found to be 34 days. In addition, the “Tumor volume, Day 15” value in data set [2] (setting [10]) is reported as 3.80 ± 1.30 cm^3.

In the case of `CN(C)c1ccc2nc3c(C(=O)O)cc(=O)c(O)c-3oc2c1.Cl` [gallocyanine], in data set [3], the “inducing cancer cell death, compared with CCDTHT” value is recorded as “ineffective or less effective”.

For the molecule `C[N+](C)=c1ccc2nc3c(ccc4ccccc43)oc-2c1.[Cl-].[Cl-].[Cl-].[Zn+2]` [meldola blue], the “inducing cancer cell death, compared with CCDTHT” value in data set [3] is given as “ineffective or less effective”.

Regarding `CN(C)c1ccc(C(=C2C=CC(=[N+](C)C)C=C2)c2ccc([N+](C)(C)C)cc2)cc1.[Cl-].[Cl-]` [methyl green], in data set [3], the “inducing cancer cell death, compared with CCDTHT” value is “ineffective or less effective”.

Take `CN(C)c1ccc2nc3ccc(=[N+](C)C)cc-3sc2c1` [methylene blue]: the “inducing cancer cell death, compared with CCDTHT” value in data set [3] is “ineffective or less effective”.

As to `CN(C)c1ccc2nc3ccc(=[N+](C)C)c([N+](=O)[O-])c-3sc2c1.[Cl-]` [methylene green], the “inducing cancer cell death, compared with CCDTHT” value in data set [3] is recorded as “ineffective or less effective”.

With `CN(C)c1ccc2cc3ccc(=[N+](C)C)cc-3oc2c1.[Cl-]` [pyronin], in data set [3], the “inducing cancer cell death, compared with CCDTHT” value is “ineffective or less effective”.

As for celestine blue, in data set [3], the “inducing cancer cell death, compared with CCDTHT” value is given as “ineffective or less effective”.
